# Like-named read-outs stand apart in the source and are kept apart here.
# How the values were obtained:
# [1] = target: Plasmepsin-2 (PM-2; Plm II) (Plasmodium falciparum (isolate HB3), UniProt P46925); assay: Plasmepsin-2 enzyme inhibition assay; type: biochemical
# Method: (§1) Plasmepsin-2 (PM-2; Plm II) and Plasmepsin (PM-4; Plm IV) expression and purification was performed following the published protocols (Istvan E S and Goldberg D E, 2005). The final purified protein was activated by diluting the protein to 0.3 mg/mL in activating buffer (0.1 M citrate pH 4.5, 0.1% Tween-20, 50 mM dithiothreitol) and incubated at room temperature for 40 min, then the activated enzyme was diluted in assay buffer (50 mM sodium acetate pH 4.7, 0.01% Tween-20). The enzymatic inhibition reaction was performed in 384 well plates with a total volume of 20 μl. 10 μl of diluted PM-2 or PM-4 enzyme was added to the 384-well plate except blank wells (blank wells add 10 μL of assay buffer) and 20 nL of serials of diluted 1000× compounds were added to the wells with 520 Echo® Liquid Handling System (Labcyte Inc.). 10 μL PM-2 peptide substrate (AnaSpec, Cat#, 62050) with assay buffer was then added to final concentration of 20 μM to start the reaction. After incubation the reaction at room temperature for 60 min, the fluorescence intensity at Ex/Em=360 nm/535 nm was measured using EnVision multilabel plate reader (Perkin-Elmer). The IC50 values were obtained using Graph Pad Prism 4 and are reported in Tables 8 and 9 below as PM-2 IC50 values.
# recombinant human BACE1 = recombinant human BACE1 (Homo sapiens, UniProt P56817); assay: β-Secretase (BACE1) enzyme inhibition FRET assay; type: biochemical; conditions: Table 13; read-out: BACE1 IC50
# Method: The enzymatic inhibition activity assays were determined using the fluorescence resonance energy transfer (FRET) assay. The assays were performed in a 384-well plate format. […] CatD and CatE were activated by incubation in assay buffer (0.1 M NaOAc, 0.2 M NaCl, pH 3.5) at room temperature for 30 min. Subsequently, the rhBACE-1 substrate (R&D Systems, catalog# ES004), the Cathepsin D and Cathepsin E substrate (R&D Systems, Catalog # ES001) were added accordingly to final concentration 20 μM to initiate the reaction. After 60 min incubation at room temperature, the time-resolved fluorescence at Ex/Em=360 nm/460 nm was measured on an EnVision multilabel plate reader (Perkin-Elmer). The analytical software, GraphPad Prism 5.0 (GraphPad Software, Inc., USA) was used to generate IC50 values via non-linear regression analysis, which are reported in Tables 8-13 below as BACE1 IC50 values.
# [2] = tested on: Plasmodium falciparum 3D7 (CQ-sensitive); assay: In vitro antimalarial assay (malaria SYBR Green I-based fluorescence, MSF), 3D7; type: cell-based; conditions: for inhibition of growth at 1 µM: 3D7, 72 h, read-out: 3D7 % inh @ 1 μM
# Method in brief: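 Asynchronous P. falciparum 3D7 cultures (0.5% parasitemia, 2% hematocrit) were exposed to serially diluted compounds, in quadruplicate. Growth was then quantified by SYBR Green I fluorescence after adding lysis buffer containing 0.2 μL/mL dye.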
# [3] = target: Plasmepsin (PM-4; Plm IV) (Plasmodium falciparum (isolate 3D7), UniProt Q8IM16); assay: Plasmepsin-4 enzyme inhibition assay; type: biochemical; conditions: Table 8
# Method: as §1
# [4] = 3D7, read-out: 3D7 IC50 (μM), Table 13
# [5] = 3D7, read-out: Pf3D7 IC50 (μM), Table 10
# Sequence of Plasmepsin-2 (PM-2; Plm II) (P46925 125-453 limits assumed): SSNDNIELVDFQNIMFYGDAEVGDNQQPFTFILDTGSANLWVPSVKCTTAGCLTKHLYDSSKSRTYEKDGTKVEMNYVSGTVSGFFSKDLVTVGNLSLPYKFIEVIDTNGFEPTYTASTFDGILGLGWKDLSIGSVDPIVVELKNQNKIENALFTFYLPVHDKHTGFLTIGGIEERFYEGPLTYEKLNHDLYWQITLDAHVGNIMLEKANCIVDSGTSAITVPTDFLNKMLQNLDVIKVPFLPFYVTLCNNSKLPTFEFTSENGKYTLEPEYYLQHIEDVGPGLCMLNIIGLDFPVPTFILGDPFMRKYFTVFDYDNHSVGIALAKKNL
# Sequence of recombinant human BACE1 (P56817 46-501 limits assumed): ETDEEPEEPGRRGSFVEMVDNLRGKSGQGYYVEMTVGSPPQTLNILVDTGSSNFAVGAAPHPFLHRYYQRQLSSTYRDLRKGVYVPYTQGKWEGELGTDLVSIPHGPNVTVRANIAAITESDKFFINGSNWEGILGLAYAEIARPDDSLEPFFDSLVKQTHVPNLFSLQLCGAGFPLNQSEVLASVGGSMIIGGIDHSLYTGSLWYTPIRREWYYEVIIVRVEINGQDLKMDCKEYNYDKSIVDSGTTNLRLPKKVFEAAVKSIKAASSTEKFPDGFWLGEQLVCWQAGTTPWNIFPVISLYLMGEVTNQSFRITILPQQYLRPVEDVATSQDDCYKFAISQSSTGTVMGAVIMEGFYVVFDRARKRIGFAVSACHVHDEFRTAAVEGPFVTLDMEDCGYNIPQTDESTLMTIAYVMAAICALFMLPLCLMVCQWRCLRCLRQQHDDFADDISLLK
# Sequence of Plasmepsin (PM-4; Plm IV) (Q8IM16 122-449 limits assumed): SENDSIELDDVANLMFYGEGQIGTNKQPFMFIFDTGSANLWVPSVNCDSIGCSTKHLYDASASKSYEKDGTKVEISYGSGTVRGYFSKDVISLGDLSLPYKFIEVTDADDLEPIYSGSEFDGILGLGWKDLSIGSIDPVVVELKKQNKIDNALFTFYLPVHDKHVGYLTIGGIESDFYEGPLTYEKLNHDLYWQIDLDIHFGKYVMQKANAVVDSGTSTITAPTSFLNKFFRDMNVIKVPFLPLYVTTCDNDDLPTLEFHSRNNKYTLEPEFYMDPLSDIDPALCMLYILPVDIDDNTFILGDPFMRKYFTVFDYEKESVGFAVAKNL
smiles,measurement,setting,value
"COc1ccc(C2(c3ccc(OC)cc3)NC(=N)N(Cc3ccccc3C#N)C2=O)cc1 [Example 305, 2-{[2-imino-4,4-bis(4-methoxyphenyl)-5-oxoimidazolidin-1-yl]methyl}benzonitrile]",IC50,"[1]; Table 13, read-out: PM-2 IC50",9.3 nM
same,IC50,recombinant human BACE1,6700 nM
same,inhibition of growth at 1 µM,[2],81%
"N#Cc1cncc(-c2cccc(C3(C4CC4)NC(=N)N(C4CCOCC4)C3=O)c2)c1 (centres unmarked) [Example 488, 5-(3-(4-cyclopropyl-2-imino-5-oxo-1-(tetrahydro-2H-pyran-4-yl)imidazolidin-4-yl)phenyl)nicotinonitrile]",IC50,"[1]; Table 13, read-out: PM-2 IC50",443 nM
same,IC50,recombinant human BACE1,2980 nM
same,IC50,[2]; [4],0.362 µM
"COc1ccc(C2(c3ccccn3)NC(=N)N(C3CCOCC3)C2=O)cc1 (centres unmarked) [Example 332, 2-imino-5-(4-methoxyphenyl)-3-(oxan-4-yl)-5-(pyridin-2-yl)-imidazolidin-4-one]",IC50,"[1]; Table 13, read-out: PM-2 IC50",216 nM
same,IC50,recombinant human BACE1,> 10000 nM
same,inhibition of growth at 1 µM,[2],25%
"COc1ccc(C2(c3ccc(OC)cc3)NC(=N)N(C3CCN(C(C)=O)CC3)C2=O)cc1 [Example 310, 3-(1-acetylpiperidin-4-yl)-2-imino-5,5-bis(4-methoxyphenyl)imidazolidin-4-one]",IC50,"[1]; Table 13, read-out: PM-2 IC50",5.84 nM
same,IC50,recombinant human BACE1,~2600 nM
same,inhibition of growth at 1 µM,[2],72%
"COc1ccc(C2(c3ccc(OC)cc3)NC(=N)N(CC3CCN(C(=O)OC(C)(C)C)CC3)C2=O)cc1 [Example 313, tert-butyl 4-{[2-imino-4,4-bis(4-methoxyphenyl)-5-oxoimidazolidin-1-yl]methyl}piperidine-1-carboxylate]",IC50,"[1]; Table 13, read-out: PM-2 IC50",11 nM
same,IC50,recombinant human BACE1,~2200 nM
same,inhibition of growth at 1 µM,[2],27%
"N=C1NC(c2cccc(-c3cncc(Cl)c3)c2)(C2CC2)C(=O)N1C1CCOCC1 (centres unmarked) [Example 489, 5-(3-(5-chloropyridin-3-yl)phenyl)-5-cyclopropyl-2-imino-3-(tetrahydro-2H-pyran-4-yl)imidazolidin-4-one]",IC50,"[1]; Table 13, read-out: PM-2 IC50",211 nM
same,IC50,recombinant human BACE1,1160 nM
same,IC50,[2]; [4],0.268 µM
"COc1ccc(C2(c3ccc(OC)cc3)NC(=N)N(CC34CC5CC(CC(C5)C3)C4)C2=O)cc1 [Example 276, 3-(adamantan-1-ylmethyl)-2-imino-5,5-bis(4-methoxyphenyl)-imidazolidin-4-one]",IC50,"[1]; Table 13, read-out: PM-2 IC50",2 nM
same,IC50,recombinant human BACE1,7850 nM
same,IC50,[2]; [4],0.336 µM
"N#Cc1cncc(-c2cccc(C3(C4CC4)NC(=N)N(C4CCCCC4)C3=O)c2)c1 (centres unmarked) [Example 513, 5-(3-(1-cyclohexyl-4-cyclopropyl-2-imino-5-oxoimidazolidin-4-yl)phenyl)nicotinonitrile]",IC50,"[1]; Table 13, read-out: PM-2 IC50",219 nM
same,IC50,recombinant human BACE1,6640 nM
same,IC50,[2]; [4],0.4 µM
"COc1ccc(C2(c3cccnc3)NC(=N)N(C3CCOCC3)C2=O)cc1 (centres unmarked) [Example 323, 2-imino-5-(4-methoxyphenyl)-3-(oxan-4-yl)-5-(pyridin-3-yl)imidazolidin-4-one]",IC50,"[1]; Table 13, read-out: PM-2 IC50",74.3 nM
same,IC50,recombinant human BACE1,~10000 nM
same,inhibition of growth at 1 µM,[2],31%
"COc1ccc(C2(c3cncnc3)NC(=N)N(C3CCOCC3)C2=O)cc1 (centres unmarked) [Example 333, 2-imino-5-(4-methoxyphenyl)-3-(oxan-4-yl)-5-(pyrimidin-5-yl)imidazolidin-4-one]",IC50,"[1]; Table 13, read-out: PM-2 IC50",639 nM
same,IC50,recombinant human BACE1,> 10000 nM
same,inhibition of growth at 1 µM,[2],9%
"COc1ccc(C2(C3CCCCC3)NC(=N)N(C3CCOCC3)C2=O)cc1 (centres unmarked) [Example 331, 5-cyclohexyl-2-imino-5-(4-methoxy-phenyl)-3-(oxan-4-yl)imidazolidin-4-one]",IC50,"[1]; Table 13, read-out: PM-2 IC50",58.1 nM
same,IC50,recombinant human BACE1,~10000 nM
same,IC50,[2]; [4],0.354 µM
"COc1ccc(C2(C3CCCC3)NC(=N)N(C3CCOCC3)C2=O)cc1 (centres unmarked) [Example 335, 5-cyclopentyl-2-imino-5-(4-methoxy-phenyl)-3-(oxan-4-yl)imidazolidin-4-one]",IC50,"[1]; Table 13, read-out: PM-2 IC50",90.7 nM
same,IC50,recombinant human BACE1,> 10000 nM
same,IC50,[2]; [4],0.377 µM
COc1ccc(C2(c3ccc(OC)cc3)NC(=O)N(C3CCCCC3)C2=O)cc1,IC50,"[1]; Table 8, read-out: PM-II IC50",> 10000 nM
same,IC50,"[2]; 3D7, Table 8, read-out: Pf 3D7 IC50",> 10 µM
same,IC50,[3],> 10000 nM
"COc1ccc(C2(c3ccc(OC)cc3)NC(=N)N(C3CCN(C(=O)CCN(C)C)CC3)C2=O)cc1 [Example 322, 3-{1-[3-(dimethylamino)propanoyl]piperidin-4-yl}-2-imino-5,5-bis(4-methoxyphenyl)imidazolidin-4-one]",IC50,"[1]; Table 13, read-out: PM-2 IC50",20.2 nM
same,IC50,recombinant human BACE1,> 10000 nM
same,inhibition of growth at 1 µM,[2],34%
"COc1ccc(C2(c3ccc(OC)cc3)NC(=N)N(C3CC3)C2=O)cc1 [Example 158, 3-cyclopropyl-2-imino-5,5-bis(4-methoxyphenyl)-imidazolidin-4-one]",IC50,"[1]; Table 13, read-out: PM-2 IC50",392 nM
same,IC50,recombinant human BACE1,> 10000 nM
same,IC50,[2]; [4],4.11 µM
same,IC50,[2]; [5],4.11 µM
"COc1ccc(C2(c3ccc(OC)cc3)NC(=N)N(C3CCN(C(=O)c4ccccc4)CC3)C2=O)cc1 [Example 311, 3-(1-benzoylpiperidin-4-yl)-2-imino-5,5-bis(4-methoxyphenyl)imidazolidin-4-one]",IC50,"[1]; Table 13, read-out: PM-2 IC50",2 nM
same,IC50,recombinant human BACE1,~6800 nM
same,inhibition of growth at 1 µM,[2],81%
"COc1ccc(C2(C3CC3)NC(=N)N(C3CCOCC3)C2=O)cc1 (centres unmarked) [Example 325, 5-cyclopropyl-2-imino-5-(4-methoxyphenyl)-3-(oxan-4-yl)imidazolidin-4-one]",IC50,"[1]; Table 13, read-out: PM-2 IC50",426 nM
same,IC50,recombinant human BACE1,> 10000 nM
same,IC50,[2]; [4],0.752 µM
"N=C1NC(c2cccc(-c3cccnc3)c2)(C2CCCCC2)C(=O)N1C1CCOCC1 (centres unmarked) [Example 517, 5-cyclohexyl-2-imino-5-(3-(pyridin-3-yl)phenyl)-3-(tetrahydro-2H-pyran-4-yl)imidazolidin-4-one]",IC50,"[1]; Table 13, read-out: PM-2 IC50",125 nM
same,IC50,recombinant human BACE1,14700 nM
same,IC50,[2]; [4],0.35 µM
"N=C1NC(c2cccc(-c3cccnc3)c2)(C2CC2)C(=O)N1C1CCOCC1 (centres unmarked) [Example 487, 5-cyclopropyl-2-imino-5-(3-(pyridin-3-yl)phenyl)-3-(tetrahydro-2H-pyran-4-yl)imidazolidin-4-one]",IC50,"[1]; Table 13, read-out: PM-2 IC50",512 nM
same,IC50,recombinant human BACE1,8650 nM
same,IC50,[2]; [4],0.248 µM
"COc1ccc(C2(c3ccncc3)NC(=N)N(C3CCOCC3)C2=O)cc1 (centres unmarked) [Example 334, 2-imino-5-(4-methoxyphenyl)-3-(oxan-4-yl)-5-(pyridin-4-yl)-imidazolidin-4-one]",IC50,"[1]; Table 13, read-out: PM-2 IC50",85.9 nM
same,IC50,recombinant human BACE1,> 10000 nM
same,inhibition of growth at 1 µM,[2],14%
"COc1ccc(C2(c3ccc(OC)cc3)NC(=N)N(CC3CCN(C)CC3)C2=O)cc1 [Example 308, 2-imino-5,5-bis(4-methoxyphenyl)-3-[(1-methylpiperidin-4-yl)methyl]imidazolidin-4-one]",IC50,"[1]; Table 13, read-out: PM-2 IC50",75.4 nM
same,IC50,recombinant human BACE1,> 10000 nM
same,IC50,[2]; [4],0.677 µM
"COc1ccc(C2(c3cnn(C)c3)NC(=N)N(C3CCOCC3)C2=O)cc1 (centres unmarked) [Example 336, 2-imino-5-(4-methoxyphenyl)-5-(1-methyl-1H-pyrazol-4-yl)-3-(oxan-4-yl)-imidazolidin-4-one]",IC50,"[1]; Table 13, read-out: PM-2 IC50",395 nM
same,IC50,recombinant human BACE1,> 10000 nM
same,inhibition of growth at 1 µM,[2],70%
"N=C1NC(c2ccccc2)(c2ccccc2)C(=O)N1C1CCCCC1 [Example 100, 3-cyclohexyl-2-imino-5,5-diphenyl-imidazolidin-4-one]",IC50,"[1]; Table 13, read-out: PM-2 IC50",28.7 nM
same,IC50,recombinant human BACE1,> 10000 nM
same,IC50,[2]; [4],3.85 µM
same,IC50,[2]; [5],3.85 µM
"COc1ccc(C2(C3CC3)NC(=N)N(C3CCOCC3)C2=O)cc1-c1cccc(C#N)c1 (centres unmarked) [Example 491, 5′-(4-cyclopropyl-2-imino-5-oxo-1-(tetrahydro-2H-pyran-4-yl)imidazolidin-4-yl)-2′-methoxy-[1,1′-biphenyl]-3-carbonitrile]",IC50,"[1]; Table 13, read-out: PM-2 IC50",51.7 nM
same,IC50,recombinant human BACE1,8320 nM
same,IC50,[2]; [4],0.47 µM
"COc1ccc(C2(c3ccc(OC)cc3)NC(=N)N(Cc3ncccc3C)C2=O)cc1 [Example 302, 2-imino-5,5-bis(4-methoxyphenyl)-3-[(3-methylpyridin-2-yl)methyl]imidazolidin-4-one]",IC50,"[1]; Table 13, read-out: PM-2 IC50",48.8 nM
same,IC50,recombinant human BACE1,> 10000 nM
same,IC50,[2]; [4],1.07 µM
"COc1ccc(C2(C3CCCCC3)NC(=N)N(C3CCCCC3)C2=O)cc1 (centres unmarked) [Example 447, 3,5-dicyclohexyl-2-imino-5-(4-methoxyphenyl)imidazolidin-4-one]",IC50,"[1]; Table 13, read-out: PM-2 IC50",67.4 nM
same,IC50,recombinant human BACE1,17300 nM
same,IC50,[2]; [4],0.494 µM

# — patent US9353089B2, “Compositions and methods for the treatment of malaria” (Saint Louis University, priority 2013, dated 2016)
